Measured values taken from US10214519B2, “Phosphatidylinositol 3-kinase inhibitors” (Gilead Sciences, Inc., priority 2016, dated 2019).

Molecular target: PI3Kβ (Homo sapiens (Human), UniProt P42338)
Assay: PI3K isoform TR-FRET enzymatic assay (PI3Kβ)
Format: biochemical
Conditions: 2× Km ATP, 30 minutes at 25° C.
How it was run: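 IC50 came from four-parameter dose-response fits, normalized between DMSO and 1 μM wortmannin controls. The read-out was TR-FRET (615/665 nm) of PIP3 displacing fluorescent PIP3 from Europium GRP-1 after 10 mM EDTA termination. Compounds were incubated with purified heterodimeric PI3Kβ for 30 min at 25° C.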

Chain of PI3Kβ (P42338 whole entry, canonical isoform): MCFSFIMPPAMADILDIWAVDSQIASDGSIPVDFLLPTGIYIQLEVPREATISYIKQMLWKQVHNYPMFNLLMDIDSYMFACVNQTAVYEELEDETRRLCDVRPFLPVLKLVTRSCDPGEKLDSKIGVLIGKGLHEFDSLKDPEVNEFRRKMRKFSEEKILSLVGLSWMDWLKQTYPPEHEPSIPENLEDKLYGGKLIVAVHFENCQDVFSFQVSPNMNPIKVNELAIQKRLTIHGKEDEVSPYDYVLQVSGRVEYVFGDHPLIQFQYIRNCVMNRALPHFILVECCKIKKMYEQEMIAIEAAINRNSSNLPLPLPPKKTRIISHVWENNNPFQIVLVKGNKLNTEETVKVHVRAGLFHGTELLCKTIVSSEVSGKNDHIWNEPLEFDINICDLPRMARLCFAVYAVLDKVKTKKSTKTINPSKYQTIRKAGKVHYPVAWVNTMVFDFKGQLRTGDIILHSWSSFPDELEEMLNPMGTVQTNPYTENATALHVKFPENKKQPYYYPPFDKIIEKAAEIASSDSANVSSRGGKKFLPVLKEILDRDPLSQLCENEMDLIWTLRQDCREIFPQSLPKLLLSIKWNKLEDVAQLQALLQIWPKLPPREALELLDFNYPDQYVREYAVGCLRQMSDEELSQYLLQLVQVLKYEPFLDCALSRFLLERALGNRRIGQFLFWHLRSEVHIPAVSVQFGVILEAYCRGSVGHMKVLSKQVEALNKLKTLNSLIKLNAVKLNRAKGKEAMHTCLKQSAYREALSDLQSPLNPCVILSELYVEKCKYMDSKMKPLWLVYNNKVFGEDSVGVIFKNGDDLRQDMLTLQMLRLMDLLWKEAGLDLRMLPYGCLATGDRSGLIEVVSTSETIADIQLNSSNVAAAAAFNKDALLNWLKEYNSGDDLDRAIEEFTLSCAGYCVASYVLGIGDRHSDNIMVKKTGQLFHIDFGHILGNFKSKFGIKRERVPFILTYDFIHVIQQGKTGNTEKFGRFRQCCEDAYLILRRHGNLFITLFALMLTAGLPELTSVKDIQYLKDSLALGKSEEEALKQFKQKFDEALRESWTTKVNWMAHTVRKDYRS
Chain of PI3Kβ (P27986 whole entry partner, canonical isoform): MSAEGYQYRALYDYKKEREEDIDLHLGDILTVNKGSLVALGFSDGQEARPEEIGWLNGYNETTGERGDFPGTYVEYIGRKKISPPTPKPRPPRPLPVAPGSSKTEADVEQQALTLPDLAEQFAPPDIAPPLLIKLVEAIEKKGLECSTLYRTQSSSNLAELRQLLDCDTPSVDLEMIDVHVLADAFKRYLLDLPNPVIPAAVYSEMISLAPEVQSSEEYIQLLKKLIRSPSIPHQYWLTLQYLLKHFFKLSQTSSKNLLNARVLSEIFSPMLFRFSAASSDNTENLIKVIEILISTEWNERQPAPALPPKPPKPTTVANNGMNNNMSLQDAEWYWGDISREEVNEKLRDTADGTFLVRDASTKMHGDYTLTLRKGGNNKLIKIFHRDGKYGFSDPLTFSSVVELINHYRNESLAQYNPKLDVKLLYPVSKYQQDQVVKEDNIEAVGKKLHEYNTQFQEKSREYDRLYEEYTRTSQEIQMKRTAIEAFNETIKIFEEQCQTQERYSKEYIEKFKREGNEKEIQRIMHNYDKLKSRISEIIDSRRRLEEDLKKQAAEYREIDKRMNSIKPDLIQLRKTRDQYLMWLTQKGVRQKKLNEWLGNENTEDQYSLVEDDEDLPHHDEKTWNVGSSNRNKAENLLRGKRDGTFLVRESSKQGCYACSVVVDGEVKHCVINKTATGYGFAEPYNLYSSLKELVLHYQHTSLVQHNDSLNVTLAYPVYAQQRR

Compound	IC50 [nM]
Cc1cnc2c(C#N)cccc2c1-n1c(C)nc2c(-c3nnc[nH]3)cc(N3CCOCC3)cc21 [Example 156, 3-methyl-4-(2-methyl-6-morpholino-4-(4H-1,2,4-triazol-3-yl)-1H-benzo[d]imidazol-1-yl)quinoline-8-carbonitrile]	20
CCCc1nc2c(-c3nnc[nH]3)cc(N3CCOCC3)cc2n1-c1ccnc2cc(F)ccc12 [Example 7, 4-(1-(7-fluoroquinolin-4-yl)-2-propyl-4-(4H-1,2,4-triazol-3-yl)-1H-benzo[d]imidazol-6-yl)morpholine]	31
Cc1nc2c(-c3nnc[nH]3)cc(N3CCOCC3)cc2n1-c1ccnc2c(F)ccc(F)c12 [Example 114, 4-[3-(5,8-difluoroquinolin-4-yl)-2-methyl-7-(4H-1,2,4-triazol-3-yl)benzimidazol-5-yl]morpholine]	12
Cc1nc2c(-c3ccccc3)cc(N3CCOCC3)cc2n1-c1ccnc2c(Cl)cccc12 [Example 311, 4-(1-(8-chloroquinolin-4-yl)-2-methyl-4-phenyl-1H-benzo[d]imidazol-6-yl)morpholine]	47
Cc1c[nH]c(-c2cc(N3CCOCC3)cc3c2nc(C)n3-c2ccnc3c(Cl)cccc23)n1 [Example 176, 4-[3-(8-chloroquinolin-4-yl)-2-methyl-7-(4-methyl-1H-imidazol-2-yl)benzimidazol-5-yl]morpholine]	510
Cc1nnc(-c2cc(N3CCOCC3)cc3c2nc(C)n3-c2c(Cl)cnc3c(Cl)cccc23)[nH]1 (atropisomer, axis not shown) [Compound 367, 4-(1-(3,8-dichloroquinolin-4-yl)-2-methyl-4-(5-methyl-4H-1,2,4-triazol-3-yl)-1H-benzo[d]imidazol-6-yl)morpholine]	5600
CCCc1nc2c(-c3nnc[nH]3)cc(N3CCOCC3)cc2n1-c1ccnc2c(Cl)ccc(F)c12 [Example 48, 4-(1-(8-chloro-5-fluoroquinolin-4-yl)-2-propyl-4-(4H-1,2,4-triazol-3-yl)-1H-benzo[d]imidazol-6-yl)morpholine]	18
Cc1nc2c(-c3nnc[nH]3)cc(N3CCOCC3)cc2n1-c1cc(-c2ccccc2)nc2ccccc12 [Example 59, 4-[2-methyl-3-(2-phenylquinolin-4-yl)-7-(4H-1,2,4-triazol-3-yl)benzimidazol-5-yl]morpholine]	130
Cc1nc2c(-c3nnc[nH]3)cc(N3CCOC[C@H]3C)cc2n1-c1ccnc2c(Cl)cccc12 [Example 100, (3R)-4-[3-(8-chloroquinolin-4-yl)-2-methyl-7-(4H-1,2,4-triazol-3-yl)benzimidazol-5-yl]-3-methylmorpholine]	43
CCc1nc2c(-c3cnc(Cl)[nH]3)cc(N3CCOCC3)cc2n1-c1ccnc2c(F)cccc12 [Example 284, 4-[7-(2-chloro-1H-imidazol-5-yl)-2-ethyl-3-(8-fluoroquinolin-4-yl)benzimidazol-5-yl]morpholine]	13
Cc1nc2c(-c3nnc[nH]3)cc(N3CCOCC3)cc2n1-c1ccnc2cc(F)ccc12 [Example 90, 4-[3-(7-fluoroquinolin-4-yl)-2-methyl-7-(4H-1,2,4-triazol-3-yl)benzimidazol-5-yl]morpholine]	11
Cc1nnc(-c2cc(N3CCOCC3)cc3c2nc(C2CCCO2)n3-c2ccnc3c(Cl)cccc23)[nH]1 (stereo not shown) [Example 16, 4-(1-(8-chloroquinolin-4-yl)-4-(5-methyl-4H-1,2,4-triazol-3-yl)-2-(tetrahydrofuran-2-yl)-1H-benzo[d]imidazol-6-yl)morpholine]	53
Fc1ccc(Cl)c2nccc(-n3c(C4CC4)nc4c(-c5nccs5)cc(N5CCOCC5)cc43)c12 [Example 247, 4-(1-(8-chloro-5-fluoroquinolin-4-yl)-2-cyclopropyl-4-(thiazol-2-yl)-1H-benzo[d]imidazol-6-yl)morpholine]	12
CCc1nc2c(-c3c[nH]cn3)cc(N3CCOCC3)cc2n1-c1ccnc2c(Cl)cccc12 [Example 331, 4-[3-(8-chloroquinolin-4-yl)-2-ethyl-7-(1H-imidazol-4-yl)benzimidazol-5-yl]morpholine]	7
CCc1nc2c(-c3nnc[nH]3)cc(N3CCOCC3)cc2n1-c1c(C)cnc2c(C#N)cccc12 (atropisomer, axis not shown) [Compound 365, 4-(2-ethyl-6-morpholino-4-(4H-1,2,4-triazol-3-yl)-1H-benzo[d]imidazol-1-yl)-3-methylquinoline-8-carbonitrile]	9100
Cc1nc2c(-c3nccs3)cc(N3CCOCC3)cc2n1-c1ccnc2c(Cl)cccc12 [Example 244, 4-[3-(8-chloroquinolin-4-yl)-2-methyl-7-(1,3-thiazol-2-yl)benzimidazol-5-yl]morpholine]	9
Cc1nc2c(-c3nnc[nH]3)cc(N3CCOC[C@@H]3C)cc2n1-c1ccnc2c(Cl)cccc12 [Example 99, (3S)-4-[3-(8-chloroquinolin-4-yl)-2-methyl-7-(4H-1,2,4-triazol-3-yl)benzimidazol-5-yl]-3-methylmorpholine]	33

The remaining compounds from weak to strong by IC50, led by results:

IC50 [nM]	Compound
2200	Cc1nnc(-c2cc(N3CCOCC3)cc3c2nc(-c2ccncc2)n3-c2ccnc3c(Cl)cccc23)[nH]1 [Example 25, 4-(1-(8-chloroquinolin-4-yl)-4-(5-methyl-4H-1,2,4-triazol-3-yl)-2-(pyridin-4-yl)-1H-benzo[d]imidazol-6-yl)morpholine]
1500	c1ccc2c(-n3c(C4COC4)nc4c(-c5nnc[nH]5)cc(N5CCOCC5)cc43)ccnc2c1 [Example 24, 4-(2-(oxetan-3-yl)-1-(quinolin-4-yl)-4-(4H-1,2,4-triazol-3-yl)-1H-benzo[d]imidazol-6-yl)morpholine]
1100	Cc1nc2c(-c3cnccn3)cc(N3CCOCC3)cc2n1-c1ccnc2c(Cl)cccc12 [Example 246, 4-[3-(8-chloroquinolin-4-yl)-2-methyl-7-pyrazin-2-ylbenzimidazol-5-yl]morpholine]
270	Cc1nc2c(-c3nnc[nH]3)cc(N3CCOCC3)cc2n1-c1ccnc2c(F)c(F)ccc12 (atropisomer, axis not shown) [Compound 353, 4-[3-(7,8-difluoroquinolin-4-yl)-2-methyl-7-(4H-1,2,4-triazol-3-yl)benzimidazol-5-yl]morpholine]
230	Cc1nc[nH]c1-c1cc(N2CCOCC2)cc2c1nc(C)n2-c1ccnc2c(Cl)cccc12 [Example 177, 4-[3-(8-chloroquinolin-4-yl)-2-methyl-7-(4-methyl-1H-imidazol-5-yl)benzimidazol-5-yl]morpholine]
130	Cc1nnc(-c2cc(N3CCOCC3)cc3c2ncn3-c2cc(-c3cc[nH]n3)nc3ccccc23)[nH]1 [Example 382, 4-(1-(2-(1H-pyrazol-3-yl)quinolin-4-yl)-4-(5-methyl-4H-1,2,4-triazol-3-yl)-1H-benzo[d]imidazol-6-yl)morpholine]
42	Fc1cccc2c(-n3cnc4c(-c5cnc(Cl)[nH]5)cc(N5CCOCC5)cc43)ccnc12 [Example 292, 4-[7-(2-chloro-1H-imidazol-5-yl)-3-(8-fluoroquinolin-4-yl)benzimidazol-5-yl]morpholine]
20	CCc1nc2c(-c3cnc[nH]3)cc(N3CCOCC3)cc2n1-c1ccnc2c(F)ccc(F)c12 [Example 337, 4-[3-(5,8-difluoroquinolin-4-yl)-2-ethyl-7-(1H-imidazol-5-yl)benzimidazol-5-yl]morpholine]
16	Fc1ccc(F)c2c(-n3c(C4CC4)nc4c(-c5ncco5)cc(N5CCOCC5)cc43)ccnc12 [Example 231, 4-[2-cyclopropyl-3-(5,8-difluoroquinolin-4-yl)-7-(1,3-oxazol-2-yl)benzimidazol-5-yl]morpholine]
16	Cc1nnc(-c2cc(N3CCOCC3)cc3c2ncn3-c2ccnc3c(Cl)cccc23)[nH]1 [Example 134, 4-[3-(8-chloroquinolin-4-yl)-7-(5-methyl-4H-1,2,4-triazol-3-yl)benzimidazol-5-yl]morpholine]
13	CCc1nc2c(-c3cnc(Cl)[nH]3)cc(N3CCOCC3)cc2n1-c1ccnc2c(F)ccc(F)c12 [Example 280, 4-[7-(2-chloro-1H-imidazol-5-yl)-3-(5,8-difluoroquinolin-4-yl)-2-ethylbenzimidazol-5-yl]morpholine]
13	Cc1nc2c(-c3nnc[nH]3)cc(N3CCOCC3)cc2n1-c1ccnc2c(F)cccc12 [Example 140, 4-[3-(8-fluoroquinolin-4-yl)-2-methyl-7-(4H-1,2,4-triazol-3-yl)benzimidazol-5-yl]morpholine]
11	CCCc1nc2c(-c3nnc[nH]3)cc(N3CCOCC3)cc2n1-c1ccnc2c(C)ccc(F)c12 [Example 37, 4-(1-(5-fluoro-8-methylquinolin-4-yl)-2-propyl-4-(4H-1,2,4-triazol-3-yl)-1H-benzo[d]imidazol-6-yl)morpholine]
11	Cc1nc2c(-c3nnc[nH]3)cc(N3CCOCC3)cc2n1-c1ccnc2c(Cl)cc(F)cc12 [Example 35, 4-(1-(8-chloro-6-fluoroquinolin-4-yl)-2-methyl-4-(4H-1,2,4-triazol-3-yl)-1H-benzo[d]imidazol-6-yl)morpholine]
9	Cc1nc2c(-c3nnc[nH]3)cc(N3CCOCC3)cc2n1-c1ccnc2c(C(F)F)cccc12 [Example 82, 4-[3-[8-(difluoromethyl)quinolin-4-yl]-2-methyl-7-(4H-1,2,4-triazol-3-yl)benzimidazol-5-yl]morpholine]
8	Fc1ccc(Cl)c2nccc(-n3c(C4CC4)nc4c(-c5cnc(Cl)[nH]5)cc(N5CCOCC5)cc43)c12 [Example 307, 4-[3-(8-chloro-5-fluoroquinolin-4-yl)-7-(2-chloro-1H-imidazol-5-yl)-2-cyclopropylbenzimidazol-5-yl]morpholine]
2	Clc1cccc2c(-n3cnc4c(-c5c[nH]cn5)cc(N5CCOCC5)cc43)ccnc12 [Example 332, 4-(1-(8-chloroquinolin-4-yl)-4-(1H-imidazol-4-yl)-1H-benzo[d]imidazol-6-yl)morpholine]
